{"source": "patent US6859735B1", "about": "“Computer systems for identifying pathways of drug action” (priority 1998, dated 2005)", "key": {"[1]": {"tested_on": "pathway originating at calcineurin", "experiment": "Genome-wide correlation of FK506 expression responses against combined Cyc A and methotrexate pathway responses (scaling parameter)", "assay_type": "cell-based, Saccharomyces cerevisiae", "conditions": "location of the correlation peak versus scaling parameter applied to FK506 data", "experimental": "The gene expression measurements illustrated in FIGS. 8A-C were made as detailed below. To generate the cyclosporin dose response curves, an overnight starter culture of S.cerevisiae strain R563 (Genotype: Mat a ura3-52 lys2-801 ade2-101 trpl-Δ63 his3-Δ200 leu2-Δ1 his3::HIS3) was diluted into 200 ml of YAPD plus 10 mM CaCl2 medium (see, e.g., Ausubel et al., eds., 1996, Current Protocols in Molecular Biology, John Wiley & Sons, Inc., especially ch. 13) to an OD600 of 0.1 and grown at 30° C. with 300 rpm shaking. After a 30 min, cyclosporin A dissolved in ethanol was added to cultures at final concentrations of 60, 30, 15, 6 and 3 μg/ml. Control cultures were treated with the same volume of just ethanol. Growth was monitored by OD600 and cells were harvested at OD600=1.4+/−0.1 by centrifugation for 2 min at ambient temperature in a Sorvall RC5C+centrifuge in a SLA-1500 rotor. […]\nIn all cases, polyA^+ RNA was isolated by oligo-dT cellulose chromatography using two selections by standard protocols (see, e.g., Sambrook et al. 1989, Molecular Cloning A Laboratory Manual, Cold Spring Harbor Laboratory Press). […] Extent of hybridization was determined by scanning with a prototype multi-frame CCD camera slides produced by Applied Precision, Inc. Images were processed by informatics and imported into the Inpharma database and analyzed using the MatLab data analysis package. […]"}, "[2]": {"tested_on": "wild type yeast cells", "conditions": "at 10 micrograms/ml doxycycline, Gari et al. 1997; cited from earlier work"}, "[3]": {"tested_on": "yeast", "experiment": "Growth of yeast under methotrexate exposure", "assay_type": "cell-based, Saccharomyces cerevisiae", "conditions": "100 μm methotrexate titration", "experimental": "To generate methotrexate dose response curves, an overnight starter culture of S.cerevisiae strain BY4741 (Genotype: Mat a his3Δ0 leu2D0 ura3Δ0 met15Δ0) was diluted into 200 ml of SC medium (see, e.g., Ausubel et al, ch. 13) to an OD600 of 0.1 and grown at 30° C. with 300 rpm shaking. After 30 min, methotrexate dissolved in water was added to cultures at final concentrations of 200, 100, 50, 25, 6.2, and 3.1 μM. Control cultures were treated with the same volume of water. The rest of the procedure was as above."}, "[4]": {"tested_on": "yeast gene YOL031C", "experiment": "Transcript array gene expression response to graded methotrexate exposure, Hill function fit", "assay_type": "cell-based, Saccharomyces cerevisiae", "from_the_text": "In model fitting, the drug and pathway responses are interpolated by approximating each by a single parameterized function. An exemplary model-fitting function appropriate for approximating transcriptional state data is the Hill function, which has adjustable parameters a, u0, and n. [formula]\nThe adjustable parameters are selected independently for each cellular constituent of the drug response and for each cellular constituent of the pathway response. Preferably, the adjustable parameters are selected so that for each cellular constituent of each pathway response the sum of the squares of the distances of H(pi,l) from Ri,k(pi,l) is minimized, and so that for each cellular constituent of the drug response the sum of the squares of the distances of H(tl) from Dk(tl) is minimized. This preferable parameter adjustment method is known in the art as a least squares fit of H( ) to Ri,k( ) or to Dk( ). Other possible model functions are based on polynomial fitting, for example by various known classes of polynomials.\nModel fitting with a Hill function is illustrated with respect to FIGS. 3 and 4. As discussed, FIG. 3 illustrates an example of a pathway perturbed by methotrexate and identified by measurement. This figure illustrates the mRNA expression levels of 30 genes of the yeast S. cerevisiae that, of the approximately 6000 genes in the genome of this yeast, had the largest expression changes in response to six different exposure levels of methotrexate. FIG. 4 illustrates a fit of the pathway response of one of these gene expression levels by a Hill function. […]\nIn all cases, polyA^+ RNA was isolated by oligo-dT cellulose chromatography using two selections by standard protocols (see, e.g., Sambrook et al. 1989, Molecular Cloning A Laboratory Manual, Cold Spring Harbor Laboratory Press). […] Extent of hybridization was determined by scanning with a prototype multi-frame CCD camera slides produced by Applied Precision, Inc. Images were processed by informatics and imported into the Inpharma database and analyzed using the MatLab data analysis package."}}, "data": [{"molecule": "C=CC[C@@H]1/C=C(\\C)C[C@H](C)C[C@H](OC)[C@H]2O[C@@](O)(C(=O)C(=O)N3CCCC[C@H]3C(=O)O[C@H](/C(C)=C/[C@@H]3CC[C@@H](O)[C@H](OC)C3)[C@H](C)[C@@H](O)CC1=O)[C@H](C)C[C@@H]2OC", "note": "[FK506]", "values": [{"measurement": "approximate relative potency of FK506 and Cyc A", "setting": "[1]", "value": "approximately 63"}]}, {"molecule": "C[C@H]1c2cccc(O)c2C(=O)C2=C(O)[C@]3(O)C(=O)C(C(N)=O)=C(O)[C@@H](N(C)C)[C@@H]3[C@@H](O)[C@@H]21", "note": "[doxycycline]", "values": [{"measurement": "effect on the growth rate", "setting": "[2]", "value": "no significant effect"}]}, {"molecule": "CN(Cc1cnc2nc(N)nc(N)c2n1)c1ccc(C(=O)N[C@@H](CCC(=O)O)C(=O)O)cc1", "note": "[methotrexate]", "values": [{"measurement": "growth defect", "setting": "[3]", "value": 50, "unit": "%"}, {"measurement": "Hill function parameter a", "setting": "[4]; least squares fit of YOL031C expression response (log expression ratio amplitude)", "value": "−0.61"}, {"measurement": "Hill function parameter n", "setting": "[4]; least squares fit of YOL031C expression response to six methotrexate exposure levels", "value": 2}, {"measurement": "Hill function parameter log10(u0)", "setting": "[4]; least squares fit of YOL031C expression response, methotrexate exposure levels 3-200 μm", "value": 1.26}]}]}
